How the values were obtained:
[1] = Ocular toxicity was assessed after oral dosing at 40 mg/Kg b.i.d. for 4 days in male Wistar rats; No; settings: rat, in vivo, 96 h
Mus musculus = assay: In vivo percentage inhibition of 3LL Lewis Lung tumor mets formation were measured after oral dosing b.i.d. for 28 days to B6D2F1 mice at a dose of 15 mg/kg b.i.d; format: functional; settings: 672 h
[2] = Ocular toxicity was assessed after oral dosing at 40 mg/Kg b.i.d. for 4 days in male Wistar rats; Yes; settings: rat, in vivo, 96 h
[3] = Ocular toxicity was assessed after oral dosing at 40 mg/Kg b.i.d. for 4 days in male Wistar rats; Very weak; settings: rat, in vivo, 96 h

Row | Compound | Eye toxicity [1] | inhibition in vivo at 15 mg/kg (Mus musculus) [%] | Eye toxicity [2] | also measured
1 | FC(F)(F)c1cccc(N2CCN(c3ccc(-c4ncns4)nn3)CC2)c1 | No toxicity | – | – | –
2 | FC(F)(F)c1cccc(NC2CCN(c3ccc(-c4ncns4)nn3)CC2)c1 | No toxicity | 42 | – | –
3 | Cc1nsc(-c2ccc(N3CCN(c4ccccc4C(F)(F)F)CC3)nn2)n1 | – | – | Yes | –
4 | Cc1nsc(-c2ccc(N3CCN(c4cccc(C(F)(F)F)c4)CC3)cc2)n1 | No toxicity | – | – | –
5 | Cc1nsc(-c2ccc(N3CCN(c4cccc([N+](=O)[O-])c4)CC3)nn2)n1 | – | – | Yes | –
6 | Cc1nsc(-c2ccc(N3CCN(c4cccc(C(F)(F)F)c4)CC3)nn2)n1 | – | – | Toxicity | –
7 | CCc1nsc(-c2ccc(N3CCN(c4cccc(C(F)(F)F)c4)CC3)nn2)n1 | No toxicity | – | – | –
8 | Cc1nsc(-c2ccc(N3CCN(c4cccc(C(F)(F)F)c4)CC3)nc2)n1 | No toxicity | – | – | –
9 | CNc1nsc(-c2ccc(N3CCN(c4cccc(C(F)(F)F)c4)CC3)nn2)n1 | No toxicity | – | – | –
10 | FC(F)(F)c1cc(N2CCN(c3ccc(-c4ncns4)nn3)CC2)cc(C(F)(F)F)c1 | No toxicity | 24 | – | –
11 | Nc1nsc(-c2ccc(N3CCN(c4cccc(C(F)(F)F)c4)CC3)nn2)n1 | No toxicity | – | – | –
12 | CN(C)c1nsc(-c2ccc(N3CCC(N4CCN(c5cccc(C(F)(F)F)c5)CC4)CC3)nn2)n1 | – | 25 | – | Eye toxicity [3]: Very weak toxicity
13 | Cc1nsc(-c2ccc(N3CCN(c4cc(Cl)cc(Cl)c4)CC3)nn2)n1 | – | – | Yes | –
14 | Cc1nsc(-c2ccc(N3CCN(c4cccc(Cl)c4)CC3)nn2)n1 | – | – | Yes | –
15 | FC(F)(F)c1cccc(N2CCN(C3CCN(c4ccc(-c5ncns5)nn4)CC3)CC2)c1 | No toxicity | 54 | – | –
16 | CN(C)c1nsc(-c2ccc(N3CCN(c4cc(C(F)(F)F)cc(C(F)(F)F)c4)CC3)nn2)n1 | No toxicity | 13 | – | –
17 | Cc1nsc(-c2nccc(N3CCN(c4cccc(C(F)(F)F)c4)CC3)n2)n1 | No toxicity | – | – | –
18 | Cc1nsc(-c2ccc(N3CCN(c4cc(C(F)(F)F)cc(C(F)(F)F)c4)CC3)nn2)n1 | – | – | Yes | –
19 | CN(C)c1nsc(-c2ccc(N3CCN(c4cccc(C(F)(F)F)c4)CC3)nn2)n1 | No toxicity | 39 | – | –

— ChEMBL document CHEMBL1135986, “Corrigendum to Synthesis and anti-angiogenic activity of 6-(1,2,4-thiadiazol-5-yl)-3-amino pyridazine derivatives [Bioorg. Med. Chem. Lett. 12 (2002) 589]” (Bioorg Med Chem Lett, 2002)
